How the values were obtained:
Format in all cases: in vivo
[1] = tested on: barnyardgrass (Echinochloa crus-galli); assay: Test A preemergence barnyardgrass; details: 0 to 100 scale; for Barnyardgrass plant response rating: 0 no effect, 100 complete control; for Plant response rating, Barnyardgrass: 0 is no effect, 100 is complete control
Description: (§1) Seeds of plant species selected from barnyardgrass (Echinochloa crus-galli), kochia (Kochia scoparia), ragweed (common ragweed, Ambrosia elatior), ryegrass, Italian (Italian ryegrass, Lolium multiflorum), crabgrass, large (large crabgrass, Digitaria sanguinalis), foxtail, giant (giant foxtail, Setaria faberii), morningglory (Ipomoea spp.), pigweed (Amaranthus retroflexus), velvetleaf (Abutilon theophrasti), wheat (Triticum aestivum), and corn (Zea mays) were planted into a blend of loam soil and sand and treated preemergence with a directed soil spray using test chemicals formulated in a non-phytotoxic solvent mixture which included a surfactant.
(§2) At the same time, plants selected from these crop and weed species and also blackgrass (Alopecurus myosuroides), and galium (catchweed bedstraw, Galium aparine) were planted in pots containing the same blend of loam soil and sand and treated with postemergence applications of test chemicals formulated in the same manner. Plants ranged in height from 2 to 10 cm and were in the one- to two-leaf stage for the postemergence treatment. Treated plants and untreated controls were maintained in a greenhouse for approximately 10 d, after which time all treated plants were compared to untreated controls and visually evaluated for injury. Plant response ratings, summarized in Table A, are based on a 0 to 100 scale where 0 is no effect and 100 is complete control. A dash (-) response means no test result.

[2] = tested on: ryegrass, Italian (Italian ryegrass, Lolium multiflorum); assay: Test A preemergence ryegrass, Italian; details: 0 to 100 scale, 0 no effect, 100 complete control
Description: as §1, §2

[3] = tested on: pigweed (Amaranthus retroflexus); assay: Test A postemergence pigweed; details: 0 to 100 scale, 0 is no effect, 100 is complete control
Description: as §1, §2

[4] = tested on: ryegrass, Italian (Italian ryegrass, Lolium multiflorum); assay: Test A postemergence ryegrass, Italian; details: 0 to 100 scale, 0 is no effect, 100 is complete control
Description: as §1, §2

[5] = tested on: galium (catchweed bedstraw, Galium aparine); assay: Test A postemergence galium; details: 0 to 100 scale, 0 is no effect, 100 is complete control
Description: as §1, §2

[6] = tested on: wheat (Triticum aestivum); assay: Test A postemergence wheat; details: 0 to 100 scale, 0 is no effect, 100 is complete control
Description: as §1, §2

[7] = tested on: sedge, umbrella (small-flower umbrella sedge, Cyperus difformis); assay: Test B flooded paddy test sedge, umbrella; details: Table B, Flood, scale 0 to 100
Protocol: (§3) Plant species in the flooded paddy test selected from rice (Oryza sativa), sedge, umbrella (small-flower umbrella sedge, Cyperus difformis), ducksalad (Heteranthera limosa), and barnyardgrass (Echinochloa crus-galli) were grown to the 2-leaf stage for testing. At the time of treatment, test pots were flooded to 3 cm above the soil surface, treated by application of test compounds directly to the paddy water, and then maintained at that water depth for the duration of the test. Treated plants and controls were maintained in a greenhouse for 13 to 15 d, after which time all species were compared to controls and visually evaluated. […] A dash (-) response means no test result.

[8] = tested on: pigweed (Amaranthus retroflexus); assay: Test A preemergence pigweed; details: 0 to 100 scale, 0 no effect, 100 complete control
Description: as §1, §2

[9] = tested on: ragweed (common ragweed, Ambrosia elatior); assay: Test A preemergence ragweed; details: 0 to 100 scale, 0 no effect, 100 complete control
Description: as §1, §2

[10] = tested on: ducksalad (Heteranthera limosa); assay: Test B flooded paddy test ducksalad; details: Table B, Flood, scale 0 to 100
Protocol: as §3

[11] = tested on: blackgrass (Alopecurus myosuroides); assay: Test A postemergence blackgrass; details: 0 to 100 scale, 0 is no effect, 100 is complete control
Description: as §1, §2

[12] = tested on: ragweed (common ragweed, Ambrosia elatior); assay: Test A postemergence ragweed; details: 0 to 100 scale, 0 is no effect, 100 is complete control
Description: as §1, §2

rice (Oryza sativa) = assay: Test B flooded paddy test rice; details: Table B, Flood, scale 0 to 100
Protocol: as §3

[13] = tested on: foxtail, giant (giant foxtail, Setaria faberii); assay: Test A postemergence foxtail, giant; details: 0 to 100 scale, 0 is no effect, 100 is complete control
Description: as §1, §2

[14] = tested on: foxtail, giant (giant foxtail, Setaria faberii); assay: Test A preemergence foxtail, giant; details: 0 to 100 scale, 0 no effect, 100 complete control
Description: as §1, §2

[15] = tested on: barnyardgrass (Echinochloa crus-galli); assay: Test A postemergence barnyardgrass; details: 0 to 100 scale, 0 is no effect, 100 is complete control
Description: as §1, §2

[16] = tested on: barnyardgrass (Echinochloa crus-galli); assay: Test B flooded paddy test barnyardgrass; details: Table B, Flood, scale 0 to 100
Protocol: as §3

kochia (Kochia scoparia) [17] = assay: Test A preemergence kochia; details: 0 to 100 scale, 0 no effect, 100 complete control
Description: as §1, §2

corn (Zea mays) = assay: Test A postemergence corn; details: 0 to 100 scale, 0 is no effect, 100 is complete control
Description: as §1, §2

kochia (Kochia scoparia) [18] = assay: Test A postemergence kochia; details: 0 to 100 scale, 0 is no effect, 100 is complete control
Description: as §1, §2

Compound	Barnyardgrass plant response rating ([1]; 125 g ai/ha)	Ryegrass, Italian plant response rating ([2]; 125 g ai/ha)	Ryegrass, Italian plant response rating ([2]; 500 g ai/ha)	Plant response rating, Pigweed ([3]; 125 g ai/ha)	Plant response rating, Pigweed ([3]; 500 g ai/ha)	Plant response rating, Ryegrass, Italian ([4]; 125 g ai/ha)	Plant response rating, Ryegrass, Italian ([4]; 500 g ai/ha)	Plant response rating, Galium ([5]; 125 g ai/ha)	Plant response rating, Galium ([5]; 500 g ai/ha)	Plant response rating, Wheat ([6]; 125 g ai/ha)	Plant response rating, Wheat ([6]; 500 g ai/ha)	Pigweed plant response rating ([8]; 125 g ai/ha)	Pigweed plant response rating ([8]; 500 g ai/ha)	Ragweed plant response rating ([9]; 125 g ai/ha)	Ragweed plant response rating ([9]; 500 g ai/ha)	Plant response rating, Blackgrass ([11]; 125 g ai/ha)	Plant response rating, Blackgrass ([11]; 500 g ai/ha)	Plant response rating, Ragweed ([12]; 125 g ai/ha)	Plant response rating, Ragweed ([12]; 500 g ai/ha)	Plant response rating, Foxtail, Giant ([13]; 125 g ai/ha)	also measured
O=C1NCCC(c2ccccc2C(F)(F)F)C1C(=O)Nc1ccccc1C(F)(F)F (racemic) [Compound 7]	0	0	0	0	0	0	0	0	0	0	0	0	0	0	0	0	0	0	0	0	Plant response rating, Barnyardgrass ([1]; 500 g ai/ha): 0; Plant response rating ([7]; 1000 g ai/ha): 0; Plant response rating ([10]; 1000 g ai/ha): 0; Plant response rating (rice (Oryza sativa); 1000 g ai/ha): 0; Plant response rating, Foxtail, Giant ([13]; 500 g ai/ha): 0; Foxtail, Giant plant response rating ([14]; 125 g ai/ha): 0; Foxtail, Giant plant response rating ([14]; 500 g ai/ha): 0; Plant response rating, Barnyardgrass ([15]; 125 g ai/ha): 0; Plant response rating, Barnyardgrass ([15]; 500 g ai/ha): 0; Plant response rating ([16]; 1000 g ai/ha): 0; Kochia plant response rating (kochia (Kochia scoparia) [17]; 125 g ai/ha): 0; Kochia plant response rating (kochia (Kochia scoparia) [17]; 500 g ai/ha): 0; Plant response rating, Corn (corn (Zea mays); 125 g ai/ha): 0; Plant response rating, Corn (corn (Zea mays); 500 g ai/ha): 0; Plant response rating, Kochia (kochia (Kochia scoparia) [18]; 125 g ai/ha): 0; Plant response rating, Kochia (kochia (Kochia scoparia) [18]; 500 g ai/ha): 0
O=C1NCCC(c2ccccc2C(F)(F)F)C1C(=O)Nc1cccc(F)c1F (racemic) [Compound 8]	0	0	0	0	0	0	0	0	0	0	0	0	0	0	0	0	0	0	0	0	Plant response rating, Barnyardgrass ([1]; 500 g ai/ha): 0; Plant response rating, Foxtail, Giant ([13]; 500 g ai/ha): 0; Foxtail, Giant plant response rating ([14]; 125 g ai/ha): 0; Foxtail, Giant plant response rating ([14]; 500 g ai/ha): 0; Plant response rating, Barnyardgrass ([15]; 125 g ai/ha): 0; Plant response rating, Barnyardgrass ([15]; 500 g ai/ha): 0; Kochia plant response rating (kochia (Kochia scoparia) [17]; 125 g ai/ha): 0; Kochia plant response rating (kochia (Kochia scoparia) [17]; 500 g ai/ha): 0; Plant response rating, Corn (corn (Zea mays); 125 g ai/ha): 0; Plant response rating, Corn (corn (Zea mays); 500 g ai/ha): 0; Plant response rating, Kochia (kochia (Kochia scoparia) [18]; 125 g ai/ha): 0; Plant response rating, Kochia (kochia (Kochia scoparia) [18]; 500 g ai/ha): 0
O=C1NCCC(c2ccc(C(F)(F)F)cc2)C1C(=O)Nc1cccc(F)c1Cl (racemic) [Compound 15]	60	0	0	0	0	0	0	30	70	0	0	0	0	0	80	20	50	0	40	70	Barnyardgrass plant response rating ([1]; 500 g ai/ha): 80; Plant response rating ([7]; 500 g ai/ha): 0; Plant response rating ([10]; 500 g ai/ha): 60; Plant response rating (rice (Oryza sativa); 500 g ai/ha): 0; Plant response rating, Foxtail, Giant ([13]; 500 g ai/ha): 80; Foxtail, Giant plant response rating ([14]; 125 g ai/ha): 80; Foxtail, Giant plant response rating ([14]; 500 g ai/ha): 90; Plant response rating, Barnyardgrass ([15]; 125 g ai/ha): 60; Plant response rating, Barnyardgrass ([15]; 500 g ai/ha): 70; Plant response rating ([16]; 500 g ai/ha): 40; Kochia plant response rating (kochia (Kochia scoparia) [17]; 125 g ai/ha): 0; Kochia plant response rating (kochia (Kochia scoparia) [17]; 500 g ai/ha): 0; Plant response rating, Corn (corn (Zea mays); 125 g ai/ha): 0; Plant response rating, Corn (corn (Zea mays); 500 g ai/ha): 0; Plant response rating, Kochia (kochia (Kochia scoparia) [18]; 125 g ai/ha): 10; Plant response rating, Kochia (kochia (Kochia scoparia) [18]; 500 g ai/ha): 60
Cc1c(F)cccc1NC(=O)C1C(=O)NCCC1c1cccc(C(F)(F)F)c1 (racemic) [Compound 26]	30	0	50	0	0	20	20	0	0	0	20	0	0	0	0	0	40	0	0	30	Barnyardgrass plant response rating ([1]; 500 g ai/ha): 90; Plant response rating ([7]; 500 g ai/ha): 0; Plant response rating ([10]; 500 g ai/ha): 50; Plant response rating (rice (Oryza sativa); 500 g ai/ha): 0; Plant response rating, Foxtail, Giant ([13]; 500 g ai/ha): 90; Foxtail, Giant plant response rating ([14]; 125 g ai/ha): 60; Foxtail, Giant plant response rating ([14]; 500 g ai/ha): 90; Plant response rating, Barnyardgrass ([15]; 125 g ai/ha): 30; Plant response rating, Barnyardgrass ([15]; 500 g ai/ha): 80; Plant response rating ([16]; 500 g ai/ha): 40; Kochia plant response rating (kochia (Kochia scoparia) [17]; 125 g ai/ha): 0; Kochia plant response rating (kochia (Kochia scoparia) [17]; 500 g ai/ha): 0; Plant response rating, Corn (corn (Zea mays); 125 g ai/ha): 20; Plant response rating, Corn (corn (Zea mays); 500 g ai/ha): 40; Plant response rating, Kochia (kochia (Kochia scoparia) [18]; 125 g ai/ha): 0; Plant response rating, Kochia (kochia (Kochia scoparia) [18]; 500 g ai/ha): 0
O=C1NCCC(c2cccc(C(F)(F)F)c2)C1C(=O)Nc1ccc(F)cc1F (racemic) [Compound 27]	60	0	0	0	0	0	0	0	0	0	0	0	0	0	0	0	0	0	0	40	Barnyardgrass plant response rating ([1]; 500 g ai/ha): 90; Plant response rating ([7]; 500 g ai/ha): 0; Plant response rating ([10]; 500 g ai/ha): 0; Plant response rating (rice (Oryza sativa); 500 g ai/ha): 0; Plant response rating, Foxtail, Giant ([13]; 500 g ai/ha): 70; Foxtail, Giant plant response rating ([14]; 125 g ai/ha): 80; Foxtail, Giant plant response rating ([14]; 500 g ai/ha): 90; Plant response rating, Barnyardgrass ([15]; 125 g ai/ha): 50; Plant response rating, Barnyardgrass ([15]; 500 g ai/ha): 60; Plant response rating ([16]; 500 g ai/ha): 0; Kochia plant response rating (kochia (Kochia scoparia) [17]; 125 g ai/ha): 0; Kochia plant response rating (kochia (Kochia scoparia) [17]; 500 g ai/ha): 0; Plant response rating, Corn (corn (Zea mays); 125 g ai/ha): 0; Plant response rating, Corn (corn (Zea mays); 500 g ai/ha): 0; Plant response rating, Kochia (kochia (Kochia scoparia) [18]; 125 g ai/ha): 0; Plant response rating, Kochia (kochia (Kochia scoparia) [18]; 500 g ai/ha): 0
